Data set [1] can be described thus: Atomic force microscopy (AFM) topography of Langmuir-Blodgett-transferred meibomian lipid layers. In kind it is physicochemical, human. Here is the method: The topography of the surface of the lipid layers was examined with the aid of an atomic force microscope (atomic force microscopy, AFM). To this end, the lipid layer was transferred to a solid surface using the Langmuir-Blodgett technique; thereafter, the AFM measurements were carried out at pressures of 5 mN/m, 20 mN/m and 23.5 mN/m and 20° C. At a relatively low pressure of 5 mN/m, it was possible to observe small fibrous structures of up to approx. 5 nm in height distributed over the entire area. Layers of hydrophobic lipids such as cholesteryl esters and triglycerides might be involved here. At higher pressures of 20 mN/m, the number of fibrous structures increased.
In the presence of 100 mM ectoine, droplet-type structures of up to approx. 300 nm in height were observed. At higher ectoine concentrations, the diameter of the droplet-type structures increased.

Data set [2] relates to patients suffering from a mild to moderate form of keratoconjunctivitis sicca. In words: Clinical study, OSDI (ocular surface disease index) quality of life. It is filed as in vivo, human. Conditions: within the 28-day observation period. Here is the method:
In one study, 64 patients suffering from a mild to moderate form of keratoconjunctivitis sicca were examined. […] The majority (72%) of the patients were female. For at least one eye in each case, the tear break-up time (TBUT), i.e., the time until dry spots reappear on the cornea after blinking, was less than 10 sec. The TBUT was used as the main parameter for the treatment assessment. Over a period of 28 days, 34 patients were treated with an ectoine-containing composition and the other 30 patients with hyaluronic acid as reference. 59 of the patients finished the study as planned; 5 patients left prematurely. The quality of life of the patients was determined on the basis of the OSDI (ocular surface disease index). The OSDI assessment consists of 12 questions answered by the patients on a scale of 0 to 4 (0=never; 4=always). The higher the OSDI value, the stronger the impairment of the daily life of the disease. Within the observation period, it was possible to observe a decrease of 17.7 points in the case of the ectoine-treated patients and of 17.2 points in the case of the hyaluronic acid-treated patients.

Data set [3] shares this test system. It is filed as in vivo, human. The conditions noted are these: for tolerability: human, in vivo. Here is the method: In one study, 64 patients suffering from a mild to moderate form of keratoconjunctivitis sicca were examined. […] The majority (72%) of the patients were female. For at least one eye in each case, the tear break-up time (TBUT), i.e., the time until dry spots reappear on the cornea after blinking, was less than 10 sec. The TBUT was used as the main parameter for the treatment assessment. Over a period of 28 days, 34 patients were treated with an ectoine-containing composition and the other 30 patients with hyaluronic acid as reference. 59 of the patients finished the study as planned; 5 patients left prematurely. […] Especially the sensation of foreign bodies and the sensation of tired eyes were rated as improved following the treatment. 78.8% of the ectoine-treated patients and 71.4% of the hyaluronic acid-treated patients would continue use.

The test system is the same in data set [4]. As to the kind of experiment: Clinical study, lacrimation according to Schirmer's test II. In kind it is in vivo, human. The method, then: In one study, 64 patients suffering from a mild to moderate form of keratoconjunctivitis sicca were examined. […] The majority (72%) of the patients were female. For at least one eye in each case, the tear break-up time (TBUT), i.e., the time until dry spots reappear on the cornea after blinking, was less than 10 sec. The TBUT was used as the main parameter for the treatment assessment. Over a period of 28 days, 34 patients were treated with an ectoine-containing composition and the other 30 patients with hyaluronic acid as reference. 59 of the patients finished the study as planned; 5 patients left prematurely. Lacrimation was examined according to the Schirmer's test II. This was lower for the ectoine patients than for the hyaluronic acid patients both at the start (8.8 mm/5 min compared to 16.0 mm/5 min) and at the end (10.6 mm/5 min compared to 16.8 mm/5 min) of the treatment, it being possible to observe a more distinct improvement for the ectoine-treated patients than for the hyaluronic acid-treated patients (1.8 mm/5 min compared to 0.8 mm/5 min).

Data set [5] can be described thus: Compression of meibomian lipid monolayers on PBS subphase with different ectoine concentrations (surface pressure-area isotherms). In kind it is physicochemical, human. Here is the method:
Meibomian lipids were obtained from the meibomian glands of four healthy volunteers. The lipids were dissolved in chloroform/methanol (1:1, v/v) and applied to an aqueous subphase (PBS, phosphate-buffered saline solution, pH 7.4, T=20° C.). After an equilibration time of 10-15 min, the monolayers were compressed at 2.9 cm^2/min. The subphase was provided with different ectoine concentrations. The result of the compression of the lipid film on a PBS subphase without ectoine is depicted in FIG. 2A. No phase transitions are observed up to a surface pressure of 20 mN/m. […] Ectoine therefore enlarges the spaces between the molecules.

Data set [6] relates to patients suffering from a mild to moderate form of keratoconjunctivitis sicca. As to the kind of experiment: Clinical study, tear break-up time (TBUT). It is filed as in vivo, human. The method, then:
In one study, 64 patients suffering from a mild to moderate form of keratoconjunctivitis sicca were examined. […] The majority (72%) of the patients were female. For at least one eye in each case, the tear break-up time (TBUT), i.e., the time until dry spots reappear on the cornea after blinking, was less than 10 sec. The TBUT was used as the main parameter for the treatment assessment. Over a period of 28 days, 34 patients were treated with an ectoine-containing composition and the other 30 patients with hyaluronic acid as reference. 59 of the patients finished the study as planned; 5 patients left prematurely. On average, the TBUT improved within the 28-day observation period by 2.6 sec (p=0.0011) for ectoine-treated patients and by 1.1 sec (p=0.1686) for the hyaluronic acid-treated patients.

The text below walks through data of patent US20250195515A1, “COMPOSITION FOR TREATING THE EYE” (BITOP AG, priority 2014, published 2025).

In the case of `CC1=N[C@H](C(=O)O)CCN1` [ectoine, (S)-2-methyl-1,4,5,6-tetrahydropyrimidine-4-carboxylic acid], the “formation of droplet-type structures” value in data set [1] (50 mM ectoine, AFM) was “comparatively scattered and distinctly smaller”. For the same molecule, the “thickness of the lipid layer at the sites of the droplet-type clusters” value in data set [1] (100 mM ectoine in the lacrimal fluid (model of FIG. 1B), approx. 20 nm in the absence of ectoine) is given as “approx. 200 nm”. In addition, the “height of droplet-type structures” value in data set [1] (100 mM ectoine, AFM, 20° C.) is on record as at most 300 nm. The “diameter of the droplet-type structures” value in data set [1] (ectoine concentrations higher than 100 mM, AFM) was “increased”. Also, the “decrease of OSDI” value in data set [2] stood at 17.7 points. In addition, the “estimation of the effectiveness of the treatment according to patients' estimates” value in data set [3] (after 28-day treatment) is 0.9 points. Besides, the tolerability entry in data set [3] was “generally well tolerated”. Also, in data set [4] (end of the 28-day treatment), the “lacrimation, Schirmer's test II, at the end of the treatment” value was found to be 10.6 mm/5 min. The “improvement of lacrimation, Schirmer's test II” value in data set [4] (end vs start of the 28-day treatment) was 1.8 mm/5 min. The “lacrimation, Schirmer's test II, at the start of the treatment” value in data set [4] (start of the treatment (baseline)) is on record as 8.8 mm/5 min. In addition, the “hysteresis of compression-expansion curves” value in data set [5] (ectoine in PBS subphase vs without ectoine) is listed as “no significant differences”. Moreover, the “shift of the compression isotherm (area per molecule)” value in data set [5] (ectoine in PBS subphase, pH 7.4, 20° C., vs subphase without ectoine, effect is concentration-dependent) is “isotherm shifts in the direction of a larger area per molecule”. Besides, in data set [6] (28 days, ectoine compared with hyaluronic acid), the “improvement of TBUT in patients with severe keratoconjunctivitis sicca and TBUT<5 sec” value is reported as “stronger improvement”. The “improvement of TBUT on average” value in data set [6] (within the 28-day observation period) was 2.6 s.
Consider hyaluronic acid [reference compound], for which the tolerability result in data set [3] is “generally well tolerated”.
